Results taken from paper PMC6926618, “Modification of Polyacrylonitrile Fibers by Coupling to Thiosemicarbazones” (Materials, 2019).
“And” between values parts separate entries of the source, which are not always exact repeats. Identical values can stand only once. Like-named read-outs stand apart in the source and are kept apart here.

Tests used:
tyrosinase = assay: Tyrosinase activity analysis (L-DOPA oxidation, spectrophotometry at 475 nm); assay type: biochemical
Description: Tyrosinase activity was determined by spectrophotometry, as 3,4-dihydroxyphenylalanine (L-DOPA, Sigma) oxidation activity, with a modification of a reported method. In brief, the tyrosinase solution (50 µL) was gently added to 450 µL of phosphate buffer at a concentration of 0.05 M containing 50 µM samples. The pH of the solution was maintained at 6.8. Then, the mixture was incubated at 30 °C for 10 min and 500 µL of 5 mM L-DOPA solution was added. […] This intensity of the peaks was recorded based on time. The tyrosinase activity was analyzed from the initial rate. The buffer containing 1% DMSO was used as a control sample. The inhibition rate of the test solution against tyrosinase was calculated using the corresponding negative control as a reference, and an approximation of the half-inhibitory concentration (IC50) was estimated based on the concentration-enzyme inhibition rate curve.

A549 cells = assay: MTT cytotoxicity assay; assay type: cell-based; conditions: for Concentration of Compounds When 80% of Cells Survive: 48 h co-culture
Description: The cytotoxic effect of compounds was determined by using in vitro colorimetric MTT assay. The A549 cells were seeded into 96-well microtiter tissue culture plates with a final volume of 100 μL. After attachment for 24 h, the cells were treated with different concentrations (0.1, 1, 10, 50, and 100 μM) of thiosemicarbazone compounds in the culture medium. Eight replicate wells per concentration were used and all experiments were repeated in triplicate. The solvent control (DMSO) was also assayed in parallel. The cells were incubated for 24 h and 48 h with compounds. Then, MTT dye was added 4 h before the completion of the incubation periods. The resulting formazan crystals were separated from the medium and then dissolved in 100 μL DMSO. The absorbance at 490 nm was used to quantify the plates using ELx808 Absorbance Microplate Reader (Bio-Tek, Winooski, USA).

[1] = Potentiometric titration, stability constant of complex with Cu^2+; assay type: physicochemical; conditions: 25 °C, water with 20% DMSO, KNO3
Description: (§1) The stability constant of the complex was tested using a Metrohm 877 Titrino plus automatic potentiometric titrator (Metrohm, Herisau, Switzerland). The titration temperature was maintained at 25 ± 0.5 °C with pH range of 2–11. The titration solution was water solution with 20% DMSO, and the ionic strength I = […] KNO3 (aq). The initial concentration was [L] = 0.005–0.0001 mol·L^−1, [HNO3] = 0.002 mol·L^−1, [KNO3] = 0.10 mol·L^−1, and [M] = 0.0001 mol·L^−1. The total volume was 25 mL, the titration volume was 0.004 mL·D^−1, and the response time was at least 1 min. The titration was triplicate and the titration data were fitted using Hyperquad 2013 software, where the ion product of H2O was pKw = 13.85 [18]. The distribution curve of species with pH was plotted using HySS 2009 software (Version 2009, Hyperquad Co. Ltd., London, UK). Three metal ions, Cu^2+, Zn^2+, and Mn^2+, were chosen as model ions in this work. The stability constants of the thiosemicarbazone compounds forming complexes with the above three metal ions and the species distribution under different pH conditions were investigated in detail.

[2] = Potentiometric titration, stability constant of complex with Zn^2+; assay type: physicochemical; conditions: 25 °C, water with 20% DMSO, KNO3
Description: as §1

[3] = Potentiometric titration, stability constant of complex with Mn^2+; assay type: physicochemical; conditions: 25 °C, water with 20% DMSO, KNO3
Description: as §1

E. coli = assay: Antibacterial test on plates (zones of inhibition); assay type: cell-based; conditions: 20 g/L and 10 g/L on plates, Figure 11a
S. aureus [4] = assay: Antibacterial test on plates (zones of inhibition); assay type: cell-based; conditions: for antibacterial activity on S. aureus (zones of inhibition): 20 g/L and 10 g/L on plates, Figure 11; for Concentration (bacteriostatic effect), S. aureus: Table 7, Figure 12
B. subtilis = assay: Antibacterial test on plates (zones of inhibition); assay type: cell-based; conditions: 20 g/L and 10 g/L on plates, Figure 11
S. aureus [5] = assay: Antibacterial test GB/T20944.3-2008, colony count, inhibition rate; assay type: cell-based; conditions: Staphylococcus aureus, DY6 at 1.0 µM vs control sample, read-out: inhibition effect (colony-forming bacterial units)
Description: Antibacterial performance against bacteria (E. coli, S. aureus, and B. subtilis) was determined according to GB/T20944.3-2008. The inoculation suspension of bacteria was prepared and the inoculation loop was used to conduct the bacterial inoculation on the agar board for 18–24 h at 37 ± 1 °C. The sample was dipped into the conical flask filled with experimental bacteria solution with a certain concentration. After that, the oscillation culture is conducted to the samples for specified time, and 1 mL of solution was taken, diluted and distributed onto an agar plate. All plates were incubated at 37 °C for 24 h and the colonies formed were counted. […] Qt is the bacteria-colony number of viable bacteria in the plate after antibacterial treatment or grafted PAN fibers.
Figure 13 Antibacterial effect against S. aureus: (a) control sample; (b) after treatment with DY6 ay the concentration of 1.0 µM; (c) original PAN fibers; and (d) grafted DY6–PAN fibers.

[6] = L-DOPA substrate, pH 6.8, 30 °C, approximation from concentration-inhibition curve, read-out: IC50 (semi-inhibitory concentration of tyrosinase)

Compound	IC50 (tyrosinase; [6]) [µM]	logKCu^2+, n = 1 [1]	logKZn^2+, n = 1 [2]	logKMn^2+, n = 1 [3]	effective concentration (A549 cell survival rate maintained above 80%) (A549 cells)	Concentration of Compounds When 80% of Cells Survive (A549 cells) [µM]	antibacterial effect on E. coli (E. coli)	antibacterial activity on S. aureus (zones of inhibition) (S. aureus [4])	Concentration (bacteriostatic effect), S. aureus (S. aureus [4]) [µM]	antibacterial activity on B. subtilis (zones of inhibition) (B. subtilis)	IC50 (tyrosinase; L-DOPA method, blank control 1% DMSO, read-out: IC50 (semi-inhibitory curve, Figure 3)) [µM]	inhibition at 1 µM (S. aureus [5]) [%]
NC(=S)N/N=C/c1cc(Cl)ccc1O [DY5]	1.68	19.43 ± 0.22 M^−1	12.51 ± 0.20 M^−1	13.65 ± 0.16 M^−1	50 µM	<50	do not have an antibacterial effect	good antibacterial activities		good antibacterial activities		
CCN(CC)c1ccc(/C=N/NC(N)=S)c(O)c1 [DY6]	0.6	20.15 M^−1 and 20.15 ± 0.14 M^−1	14.07 M^−1 and 14.07 ± 0.37 M^−1	14.37 M^−1 and 14.37 ± 0.30 M^−1	up to 100 μM	<100	do not have an antibacterial effect	good antibacterial activities	0.02	good antibacterial activities	0.6	88.6
NC(=S)N/N=C/c1ccc2c(c1)OCCO2 [DY7]	41.2				50 µM	<50						

Now from value to compound, other results behind:

IC50 (tyrosinase; [6]) [µM]	logKCu^2+, n = 1 [1]	logKZn^2+, n = 1 [2]	logKMn^2+, n = 1 [3]	Compound	effective concentration (A549 cell survival rate maintained above 80%) (A549 cells)	Concentration of Compounds When 80% of Cells Survive (A549 cells) [µM]	antibacterial effect on E. coli (E. coli)	antibacterial activity on S. aureus (zones of inhibition) (S. aureus [4])	Concentration (bacteriostatic effect), S. aureus (S. aureus [4]) [µM]	antibacterial activity on B. subtilis (zones of inhibition) (B. subtilis)	IC50 (tyrosinase; L-DOPA method, blank control 1% DMSO, read-out: IC50 (semi-inhibitory curve, Figure 3)) [µM]	inhibition at 1 µM (S. aureus [5]) [%]
1.88	19.15 ± 0.11 M^−1	13.13 ± 0.21 M^−1	13.67 ± 0.31 M^−1	Cc1ccc(O)c(/C=N/NC(N)=S)c1 [DY1]	up to 100 μM	<100	do not have an antibacterial effect	good antibacterial activities	0.02	good antibacterial activities		
	18.83 ± 0.14 M^−1	13.53 ± 0.11 M^−1	14.27 ± 0.17 M^−1	NC(=S)N/N=C/c1cc(O)ccc1O [DY2]								
9.88	19.10 ± 0.15 M^−1	13.69 ± 0.12 M^−1	14.48 ± 0.11 M^−1	NC(=S)N/N=C/c1cc([N+](=O)[O-])ccc1O [DY3]	50 µM	<50						
1.12	18.95 ± 0.10 M^−1	13.56 ± 0.17 M^−1	14.01 ± 0.08 M^−1	COc1ccc(/C=N/NC(N)=S)c(O)c1 [DY4]	up to 100 μM	<100	do not have an antibacterial effect	good antibacterial activities		good antibacterial activities		
